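1) Cells in 96-well plates. 2) Compound, 48 h, 5 concentrations. 3) Linear interpolation between surrounding doses. 4) Unreached endpoint = highest concentration. Here, GI50 denotes the concentration required for 50% inhibition of growth. TGI denotes the concentration required for complete inhibition of growth.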 Where a SMILES comes first, the peptide text is derived from it.
Key:
Assay in all cases: NCI tumour cell line growth inhibition, 48 h
[1] = tested on: 786-0 renal
[2] = tested on: UACC-257 melanoma
[3] = tested on: SNB-75 CNS
[4] = tested on: RXF 393 renal
[5] = tested on: KM20L2 colon
[6] = tested on: DMS 273 small cell lung
[7] = tested on: NCI-H460 lung
[8] = tested on: EKVX NSCLC
[9] = tested on: DMS 114 small cell lung
[10] = tested on: RPMI-8226 leukemia
[11] = tested on: T-47D breast

Row | SMILES | TGI [1] [µM] | TGI [2] [µM] | TGI [3] [µM] | TGI [4] [µM] | TGI [5] [µM] | TGI [6] [µM] | TGI [7] [µM] | TGI [8] [µM] | TGI [9] [µM] | TGI [10] [µM] | TGI [11] [µM] | GI50 [1] [µM] | GI50 [2] [µM] | GI50 [3] [µM] | GI50 [4] [µM] | GI50 [11] [µM] | GI50 [7] [µM] | GI50 [10] [nM] | GI50 [8] [µM]
1 | CCOC(=N)CC(=O)Nc1cccc(Cl)c1 | > 100 | > 100 | > 100 | > 100 | > 100 | > 100 | > 100 | > 100 |  |  |  |  |  |  |  |  |  |  | 
2 | CNS(=O)(=O)NN(C)S(=O)(=O)c1ccc2ccccc2c1 | > 100 | > 100 | > 100 | > 100 | > 100 | > 100 |  | > 100 | > 100 | > 100 |  |  |  |  |  |  |  |  | 
3 | Cc1cccc(N2C(=O)C(=O)C(c3nc4ccccc4s3)/C(=N/NC(=S)NN)C2=O)c1C (configuration not stated) | > 100 | > 100 | > 100 | > 100 | > 100 | > 100 | > 100 | > 100 | > 100 | > 100 |  |  |  |  |  |  |  |  | 
4 | COc1ccc2c(c1)CC1c3c(ccc(OC)c3O)CC2N1C (configuration not stated) | > 73.3 | 50.6 | > 100 | 43.6 | > 70 | 45.2 | 38.8 | > 84.3 | 38.8 | 53.2 |  |  |  |  |  |  |  |  | 
5 | COc1ccc2c(c1)[n+]([O-])c(-c1ccc(C)cc1)c(N)[n+]2[O-] | > 100 | 62 | > 100 |  | > 100 | > 100 | > 100 | > 100 | 61.4 | > 100 |  |  |  |  |  |  |  |  | 
6 | CC1(C)C(=O)/C=C\C(=O)C(C)(C)C(=O)/C=C\C(=O)C(C)(C)C(=O)/C=C\C(=O)C(C)(C)C(=O)/C=C\C1=O | 49.1 | 63.9 | 99.4 | 34.1 | 83.2 | 37.4 | > 100 | 69.6 |  | 24.2 | > 100 |  |  |  |  |  |  |  | 
7 | CCCCCCCCCCCCCCCC(=O)OCC1OC(OC)C2NP(=O)(N(CCCl)CCCl)OC1C2O (configuration not stated) | 3.85 | 42.9 | 15.2 | 3.99 | 46.7 | 5.09 | 14.5 | 47.4 | 9.31 | 15.9 |  |  |  |  |  |  |  |  | 
8 | COc1ccc(-c2cc(-c3cc(Cl)cc(Br)c3O)[nH]c(=O)n2)cc1 | 32 | 42.2 | 38.3 | 31.7 | 38.6 | 31.1 | 34.6 | 27.3 | 38 | 49 |  |  |  |  |  |  |  |  | 
9 | CCOC(=O)C1=C(C)N(NC(N)=O)C(C)(O)C12CCOC2=O (configuration not stated) | > 100 | > 100 | > 100 |  | > 100 | > 100 | > 100 | > 100 |  | > 100 |  |  |  |  |  |  |  |  | 
10 | O=[N+]([O-])c1ccc(/C=C/c2csnn2)cc1 | > 100 | > 100 |  | > 100 |  |  | > 100 | > 100 | > 100 | > 100 |  |  |  |  |  |  |  |  | 
11 | Cc1ccc(NC(=S)SCCC(=O)O)cc1 | > 100 | > 100 |  | > 100 | > 100 | > 100 | > 100 | > 100 | > 100 | > 100 |  |  |  |  |  |  |  |  | 
12 | CCC(C)C1NC(=O)C2CCCN2C(=O)CNC(=O)C(C)NC(=O)C(Cc2ccccc2)NC(=O)C(C(C)C)NC1=O (configuration not stated) (cyclo(GPIVFA); configuration not given here) | > 100 | > 100 | > 100 | > 100 | > 100 |  | > 100 | > 100 | > 100 | > 100 |  |  |  |  |  |  |  |  | 
13 | Clc1ccc2nc(-c3ccccc3)nc(Cl)c2c1 | > 100 | > 100 | 59.5 | 48.6 | > 100 | > 100 | > 100 | > 100 | > 100 | > 100 |  |  |  |  |  |  |  |  | 
14 | CC1=C(Cl)C=CP(=O)(OC(C)C)C1 (configuration not stated) | > 100 | > 100 | 47.3 | > 100 | > 100 |  | > 100 | > 100 | > 100 | > 100 |  |  |  |  |  |  |  |  | 
15 | O=[N+]([O-])c1cc(Cl)ccc1OCc1ccccc1 | > 100 | > 100 | 90.8 | > 100 |  | > 100 | > 100 | > 100 | > 100 | > 100 |  |  |  |  |  |  |  |  | 
16 | COC(=O)C1C=NNC1C(=O)OC (configuration not stated) | > 100 | > 100 | > 100 | > 100 | > 100 | > 100 | > 100 | > 100 | > 100 | > 100 |  |  |  |  |  |  |  |  | 
17 | CCN(CC)C(=O)N1CCN(C=S)CC1 | > 100 | > 100 | > 100 | > 100 | > 100 | > 100 | > 100 | > 100 | > 100 |  |  |  |  |  |  |  |  |  | 
18 | COC(=O)C(CBr)CBr | 8.91 | 12.5 | 31.4 | 4.86 |  | 29.3 | 33.1 | 21.5 | 4.23 | 3.97 | 7.22 |  |  |  |  |  |  |  | 
19 | C=C1C2CC(OC(C)=O)C3(C)C(c4ccoc4)OC(=O)[C@@H](O)[C@]13OC1C[C@H](OC(C)=O)C(C)(C)[C@H](CC(=O)OC)[C@]12C (some centres not stated) | > 100 |  | > 100 |  | > 100 | > 100 | > 100 | > 100 | > 100 | > 100 |  |  |  |  |  |  |  |  | 
20 | Cc1ccn2c(CCc3nnc4cc(C)ccn34)nnc2c1 | > 100 | > 100 | > 100 | > 100 |  |  | > 100 | > 100 |  | > 100 | > 100 |  |  |  |  |  |  |  | 
21 | O=[N+]([O-])c1ccccc1C=NC12CC3CC(CC(C3)C1)C2 | > 100 | > 100 | > 100 | > 100 | > 100 | > 100 | > 100 | > 100 |  | > 100 |  |  |  |  |  |  |  |  | 
22 | CCCCNC(=O)c1cc(NCc2cc(O)ccc2O)ccc1O | 23.2 | 32.4 | > 100 | 21.4 |  |  | > 100 | 28.1 |  | 7.85 | 39.1 | 10.8 | 16.4 | 18.5 | 8.53 | 6.39 | 47.3 | 1760 | 13.4

From PubChem BioAssay (NCI)
